# Results published in patent publication US20110263454A1, “Methods of Identifying Functional Characteristics of Promoters, Transcription Modifying Proteins and Transcription Modulating Agents” (Salk Institute for Biological Studies, priority 2008, published 2011).
# Assays:
# mCAR promoter = experiment: NHR-promoter luciferase screen, mCAR promoter; assay type: cell-based, mouse; conditions: for luciferase activity normalized to lacZ activity and to a control, mCAR: mCAR promoter-luciferase, CV-1 cells, NHR +/- ligand, control = 1.00; for Luc. act., normalized to lacZ / Normalized Luc. act., normalized to control: mCAR promoter, HR/ligand component
# Procedure: (§1) The use, feasibility, and reproducibility of the functional NHR-promoter screen in a 48-well format have been tested validated. Briefly, there were co-expressed 50 ng of each NHR/NHR homodimer or NHR/RXR heterodimer with 100 ng promoter/luciferase construct and 50 ng of LacZ (as a control for transfection efficiency) in CV-1 cells using Fugene HD (Roche) as a transfection reagent (alternatively or additionally, a CMV-YFP construct can be used as a transfection control). Each of the nuclear hormone receptors that were used in these experiments was cloned into a pcDNA3.1 vector and comprised a C-terminally linked V5H6 tag. Twenty-four hours after transfection, appropriate ligands were added, where applicable, (see Table 5 for various ligands and concentrations and after 48 hrs, samples were assayed for luciferase and LacZ activity. To measure for luciferase activity 15 ul of sample was added to 30 ul of luciferase buffer (20 mM tricine, 1.07 mM MgCarbonate, 2.67 mM MgSulfate, 0.1 mM Naz-EDTA, 5 mM DTT, 5 mM ATP, 0.15 mg/ml CoA, 0.5 mM Luciferin), mixed briefly, and run in a Perkin Elmer Victor 5 luminometer. Thus, the functional NHR-promoter screen was used to observe the transcriptional activity of 29 promoters from various physiological pathways including inflammation, lipid and sugar metabolism, cholesterol transport, xenobiotic metabolism, and circadian rhythm.
# (§2) The promoters that facilitate transcription of the indicated gene products that were tested using the protocols described herein are listed in the first row of the table. The nuclear hormone receptors and, where applicable, ligands that were assayed for their transcriptional effects on the promoters are listed in the first column of the table. The data represent the luciferase activity of each sample normalized to both the lacZ activity of that sample and to a control, e.g., no NHR or ligand, as customary in the art. As described previously, these normalizations allow the transcriptional activity of each reporter cell to be compared to other samples.
# (§3) Tables 7-40 show the transcriptional effects of the hormone receptors, and, where applicable, ligands (orphan receptors are screened without ligand), on each individual promoter. […] The control data of each table are shown in their last rows.
# mUCP2 promoter = experiment: NHR-promoter luciferase screen, mUCP2 promoter; assay type: cell-based, mouse; conditions: for Luc. act., normalized to lacZ / Normalized Luc. act., normalized to control: mUCP2 promoter reporter, co-transfected HR, with or without its ligand; for Normalized Luc. act., normalized to control: relative to control; for luciferase activity normalized to lacZ activity and to a control, mUCP2: mUCP2 promoter-luciferase, CV-1 cells, NHR +/- ligand, control = 1.00
# Procedure: as §1, §2, §3
# mLeptin promoter = experiment: NHR-promoter luciferase screen, mLeptin promoter; assay type: cell-based, mouse; conditions: for Luc. act., normalized to lacZ / Normalized Luc. act., normalized to control: Table 7, mLeptin; for Results of assays of transcription factor (+/- ligand) with mLeptin: Table 6d, luciferase activity relative to control (control = 1.00); for luciferase/LacZ, mLeptin (selected results): mLeptin promoter-luciferase, NHR +/- ligand, control = 1.0
# Procedure: as §1, §2, §3
# mPOMC promoter = experiment: NHR-promoter luciferase screen, mPOMC promoter; assay type: cell-based, mouse; conditions: for Results of assays of transcription factor (+/- ligand) with mPOMC: Table 6d, luciferase activity relative to control (control = 1.00); for Luc. act., normalized to lacZ / Normalized Luc. act., normalized to control: mPOMC promoter, HR component with or without ligand; for Normalized Luc. act., normalized to control: relative to control
# Procedure: as §1, §2, §3
# hIRF7 promoter = experiment: NHR-promoter luciferase screen, hIRF7 promoter; assay type: cell-based, human; conditions: for Normalized Luc. act., normalized to control / Luc. act., normalized to lacZ: IRF7 promoter reporter; for Normalized Luc. act., normalized to control: HR without or with its ligand, relative to control; for Luc. act., normalized to lacZ: hormone receptor (HR) without or with its ligand; for hIRF7 promoter reporter activity: transcription factor +/- ligand, control = 1.00
# Procedure: as §1, §2, §3
# hCYP3A4 promoter = experiment: NHR-promoter luciferase screen, hCYP3A4 promoter; assay type: cell-based, human; conditions: for Luc. act., normalized to lacZ / Normalized Luc. act., normalized to control: CYP3A4 promoter, HR/ligand component; for hCYP3A4 promoter reporter activity: transcription factor +/- ligand, control = 1.00
# Procedure: Briefly, there were co-expressed 50 ng of each NHR/NHR homodimer or NHR/RXR heterodimer with 100 ng promoter/luciferase construct and 50 ng of LacZ (as a control for transfection efficiency) in CV-1 cells using Fugene HD (Roche) as a transfection reagent (alternatively or additionally, a CMV-YFP construct can be used as a transfection control). Each of the nuclear hormone receptors that were used in these experiments was cloned into a pcDNA3.1 vector and comprised a C-terminally linked V5H6 tag.
# as §2, §3
Substance,"luciferase activity normalized to lacZ activity and to a control, mCAR (mCAR promoter)","Luc. act., normalized to lacZ (mCAR promoter)","Normalized Luc. act., normalized to control (mCAR promoter)","Luc. act., normalized to lacZ (mUCP2 promoter)","Normalized Luc. act., normalized to control (mUCP2 promoter)","luciferase activity normalized to lacZ activity and to a control, mUCP2 (mUCP2 promoter)","Luc. act., normalized to lacZ (mLeptin promoter)","Normalized Luc. act., normalized to control (mLeptin promoter)",Results of assays of transcription factor (+/- ligand) with mLeptin (mLeptin promoter),"luciferase/LacZ, mLeptin (selected results) (mLeptin promoter)",Results of assays of transcription factor (+/- ligand) with mPOMC (mPOMC promoter),"Luc. act., normalized to lacZ (mPOMC promoter)","Normalized Luc. act., normalized to control (mPOMC promoter)","Normalized Luc. act., normalized to control (hIRF7 promoter)","Luc. act., normalized to lacZ (hIRF7 promoter)",hIRF7 promoter reporter activity (hIRF7 promoter),"Luc. act., normalized to lacZ (hCYP3A4 promoter)","Normalized Luc. act., normalized to control (hCYP3A4 promoter)",hCYP3A4 promoter reporter activity (hCYP3A4 promoter)
"GR: Glucocorticoid Receptor (NR3C1), cDNA driver",0.23,8.74,0.2,59.4,0.5,0.54,1.7,0.6,0.58,0.6,0.50,34.5,0.5,0.7,18.9,0.72,2.0,0.5,0.45
"PNR: Photoreceptor-specific Nuclear Receptor (NR2E3), cDNA driver",0.55,21.0,0.6,104.4,1.0,0.95,2.0,0.7,0.68,–,0.81,56.0,0.8,1.0,27.5,1.04,2.2,0.5,0.50
"VDR: Vitamin D Receptor (NR1I1), cDNA driver",0.69,26.5,0.7,136.2,1.2,1.24,2.6,0.9,0.90,–,1.16,79.8,1.2,1.1,30.2,1.15,5.1,1.2,1.15
"ERR1: Estrogen Related Receptor α (NR3B1, ERRa), cDNA driver",1.07,40.9,1.1,121.6,1.1,1.11,2.6,0.9,0.88,–,1.00,68.9,1.0,1.2,31.3,1.19,4.5,1.0,1.01
"AR: Androsterone Receptor (NR3C4), cDNA driver",0.81,30.88,0.8,196.6,1.8,1.79,2.5,0.8,0.84,–,1.05,72.2,1.0,1.1,29.9,1.14,3.9,0.9,0.88
"PPARg: Peroxisome proliferator activated receptor γ (NR1C3), cDNA driver",1.25,47.7,1.3,171.6,1.6,1.56,2.9,1.0,1.00,1.0,1.57,108.0,1.6,1.7,44.8,1.70,4.7,1.1,1.06
"LXRa: Liver X Receptor α (NR1H3), cDNA driver",0.78,29.5,0.8,262.7,2.4,2.39,1.9,0.7,0.65,–,1.70,117.1,1.7,1.3,33.2,1.26,4.1,0.9,0.93
